Our source for the IC50 values is patent US12509447B2, “Small molecule compound” (Technoderma Medicines Pte Ltd, priority 2019, dated 2025).

Type in all cases: biochemical
For one experiment, the target named is JAK2 (Homo sapiens, UniProt O60674). Put plainly: Inhibition of JAK kinase activity, EZ Reader microfluidic phosphorylation of peptide substrate: JAK2. To be noted: JAK2 kinase 1 nM; highest final concentration 10 μM, 1:3 serial dilution, 8 points, duplicates. The method in brief:
(§1)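 Microfluidic mobility-shift assay reading fluorescent peptide substrate and product; kinases at 20 nM (JAK1) or 1 nM (JAK2, JAK3, Tyk2) in pH 7.4 HEPES with 10 mM MgCl2, run at room temperature to 20-30% conversion, then stopped with EDTA. Compounds tested from 10 μM top, 1:3 over 8 points in duplicate; IC50 fitted from % conversion.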

The target in a further experiment is Tyk2 (Homo sapiens, UniProt P29597). Put plainly: Inhibition of JAK kinase activity, EZ Reader microfluidic phosphorylation of peptide substrate: Tyk2. To be noted: Tyk2 kinase 1 nM; highest final concentration 10 μM, 1:3 serial dilution, 8 points, duplicates. An outline of the steps:
as §1

A further experiment deals with JAK1 (Homo sapiens, UniProt P23458). Put plainly: Inhibition of JAK kinase activity, EZ Reader microfluidic phosphorylation of peptide substrate: JAK1. To be noted: JAK1 kinase 20 nM; highest final concentration 10 μM, 1:3 serial dilution, 8 points, duplicates. The method in brief: as §1
A further experiment has as its target T1, JAK3 (Homo sapiens, UniProt P52333).
T1 sequence (P52333 1-1124): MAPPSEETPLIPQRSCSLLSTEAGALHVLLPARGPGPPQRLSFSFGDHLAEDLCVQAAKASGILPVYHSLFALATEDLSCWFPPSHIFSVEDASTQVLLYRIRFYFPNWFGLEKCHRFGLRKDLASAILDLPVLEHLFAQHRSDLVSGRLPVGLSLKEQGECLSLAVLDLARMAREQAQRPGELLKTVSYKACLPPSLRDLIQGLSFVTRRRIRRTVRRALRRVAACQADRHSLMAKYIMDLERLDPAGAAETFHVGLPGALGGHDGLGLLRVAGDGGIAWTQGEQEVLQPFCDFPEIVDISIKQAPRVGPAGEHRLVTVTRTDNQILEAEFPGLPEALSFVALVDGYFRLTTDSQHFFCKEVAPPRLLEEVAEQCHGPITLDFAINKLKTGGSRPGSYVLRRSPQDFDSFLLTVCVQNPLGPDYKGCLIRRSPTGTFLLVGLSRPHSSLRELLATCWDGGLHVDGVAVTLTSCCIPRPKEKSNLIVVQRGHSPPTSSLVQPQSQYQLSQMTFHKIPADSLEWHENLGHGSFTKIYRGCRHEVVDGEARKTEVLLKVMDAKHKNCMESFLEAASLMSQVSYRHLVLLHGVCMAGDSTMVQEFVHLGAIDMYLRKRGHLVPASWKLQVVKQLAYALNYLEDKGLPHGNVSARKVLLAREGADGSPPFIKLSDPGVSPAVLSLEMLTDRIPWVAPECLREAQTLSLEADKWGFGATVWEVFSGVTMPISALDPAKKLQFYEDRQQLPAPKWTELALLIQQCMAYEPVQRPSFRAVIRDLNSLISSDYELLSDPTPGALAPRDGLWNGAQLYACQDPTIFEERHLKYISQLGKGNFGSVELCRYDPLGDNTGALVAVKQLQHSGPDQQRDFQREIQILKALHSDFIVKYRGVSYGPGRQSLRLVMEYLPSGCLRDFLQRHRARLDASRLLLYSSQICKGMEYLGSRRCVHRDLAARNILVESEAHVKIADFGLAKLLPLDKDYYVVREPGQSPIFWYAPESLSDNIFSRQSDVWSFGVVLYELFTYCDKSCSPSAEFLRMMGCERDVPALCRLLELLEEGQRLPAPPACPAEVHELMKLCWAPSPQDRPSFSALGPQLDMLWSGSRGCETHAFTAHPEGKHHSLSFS
Put plainly: Inhibition of JAK kinase activity, EZ Reader microfluidic phosphorylation of peptide substrate: JAK3. To be noted: JAK3 kinase 1 nM; highest final concentration 10 μM, 1:3 serial dilution, 8 points, duplicates. An outline of the steps: as §1

Chain of Tyk2 (P29597 whole entry): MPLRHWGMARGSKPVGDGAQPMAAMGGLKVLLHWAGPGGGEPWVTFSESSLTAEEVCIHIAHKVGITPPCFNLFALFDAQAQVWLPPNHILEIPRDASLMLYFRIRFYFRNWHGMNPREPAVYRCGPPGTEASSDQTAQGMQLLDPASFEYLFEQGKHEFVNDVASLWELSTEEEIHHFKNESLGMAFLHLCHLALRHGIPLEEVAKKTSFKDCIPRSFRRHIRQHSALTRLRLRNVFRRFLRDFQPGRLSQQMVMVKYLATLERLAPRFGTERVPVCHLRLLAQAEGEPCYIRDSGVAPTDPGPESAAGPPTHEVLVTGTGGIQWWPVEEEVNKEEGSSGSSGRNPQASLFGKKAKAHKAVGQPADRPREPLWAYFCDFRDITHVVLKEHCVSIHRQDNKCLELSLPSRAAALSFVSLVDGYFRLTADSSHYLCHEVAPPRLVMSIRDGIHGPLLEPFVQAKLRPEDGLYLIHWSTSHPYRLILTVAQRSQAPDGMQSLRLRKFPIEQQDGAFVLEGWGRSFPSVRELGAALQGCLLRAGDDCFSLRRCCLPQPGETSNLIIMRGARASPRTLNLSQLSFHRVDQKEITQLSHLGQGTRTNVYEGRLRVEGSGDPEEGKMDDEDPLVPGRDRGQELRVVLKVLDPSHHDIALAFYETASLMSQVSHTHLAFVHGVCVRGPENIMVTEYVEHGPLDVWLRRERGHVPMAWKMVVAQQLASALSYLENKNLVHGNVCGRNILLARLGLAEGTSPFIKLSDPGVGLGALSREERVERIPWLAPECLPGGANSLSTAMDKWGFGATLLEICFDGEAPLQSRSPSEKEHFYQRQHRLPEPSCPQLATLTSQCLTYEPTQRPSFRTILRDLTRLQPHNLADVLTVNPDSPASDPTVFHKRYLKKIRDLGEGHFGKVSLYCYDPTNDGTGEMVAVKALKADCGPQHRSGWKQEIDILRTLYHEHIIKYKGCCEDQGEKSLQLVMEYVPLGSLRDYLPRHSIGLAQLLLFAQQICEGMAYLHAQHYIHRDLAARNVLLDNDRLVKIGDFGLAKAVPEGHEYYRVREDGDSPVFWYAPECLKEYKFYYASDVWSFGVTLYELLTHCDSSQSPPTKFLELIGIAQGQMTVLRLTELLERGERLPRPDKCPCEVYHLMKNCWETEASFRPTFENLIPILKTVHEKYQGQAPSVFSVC
Chain of JAK2 (O60674 whole entry): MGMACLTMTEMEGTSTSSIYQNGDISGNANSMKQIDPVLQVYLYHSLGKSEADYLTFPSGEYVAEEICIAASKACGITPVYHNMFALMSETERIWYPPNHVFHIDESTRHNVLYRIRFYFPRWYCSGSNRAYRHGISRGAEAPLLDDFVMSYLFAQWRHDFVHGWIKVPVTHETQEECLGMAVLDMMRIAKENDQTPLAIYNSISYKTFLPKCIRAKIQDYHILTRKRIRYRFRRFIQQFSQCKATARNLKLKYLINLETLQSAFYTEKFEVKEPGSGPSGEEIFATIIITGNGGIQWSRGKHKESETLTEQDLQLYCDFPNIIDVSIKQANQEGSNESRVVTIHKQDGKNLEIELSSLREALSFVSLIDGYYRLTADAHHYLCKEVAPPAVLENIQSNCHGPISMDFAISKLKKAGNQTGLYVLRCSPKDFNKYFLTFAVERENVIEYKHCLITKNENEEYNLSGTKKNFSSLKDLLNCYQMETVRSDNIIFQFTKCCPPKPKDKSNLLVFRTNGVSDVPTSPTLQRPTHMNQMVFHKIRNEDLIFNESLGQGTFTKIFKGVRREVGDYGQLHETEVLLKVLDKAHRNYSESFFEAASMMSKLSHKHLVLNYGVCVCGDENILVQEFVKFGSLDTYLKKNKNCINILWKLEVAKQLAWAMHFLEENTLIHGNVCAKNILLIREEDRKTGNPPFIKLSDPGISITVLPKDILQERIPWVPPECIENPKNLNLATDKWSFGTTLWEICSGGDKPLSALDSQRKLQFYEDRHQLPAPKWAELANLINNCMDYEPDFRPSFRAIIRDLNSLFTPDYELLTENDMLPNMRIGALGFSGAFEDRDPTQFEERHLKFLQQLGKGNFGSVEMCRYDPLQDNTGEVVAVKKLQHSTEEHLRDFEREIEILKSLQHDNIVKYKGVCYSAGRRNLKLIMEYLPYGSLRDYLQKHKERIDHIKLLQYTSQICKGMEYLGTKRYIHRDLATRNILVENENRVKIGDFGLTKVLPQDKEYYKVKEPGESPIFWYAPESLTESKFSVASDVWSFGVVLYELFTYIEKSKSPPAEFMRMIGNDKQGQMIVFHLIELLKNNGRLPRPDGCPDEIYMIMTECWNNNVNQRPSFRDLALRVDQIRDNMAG
Chain of JAK1 (P23458 whole entry): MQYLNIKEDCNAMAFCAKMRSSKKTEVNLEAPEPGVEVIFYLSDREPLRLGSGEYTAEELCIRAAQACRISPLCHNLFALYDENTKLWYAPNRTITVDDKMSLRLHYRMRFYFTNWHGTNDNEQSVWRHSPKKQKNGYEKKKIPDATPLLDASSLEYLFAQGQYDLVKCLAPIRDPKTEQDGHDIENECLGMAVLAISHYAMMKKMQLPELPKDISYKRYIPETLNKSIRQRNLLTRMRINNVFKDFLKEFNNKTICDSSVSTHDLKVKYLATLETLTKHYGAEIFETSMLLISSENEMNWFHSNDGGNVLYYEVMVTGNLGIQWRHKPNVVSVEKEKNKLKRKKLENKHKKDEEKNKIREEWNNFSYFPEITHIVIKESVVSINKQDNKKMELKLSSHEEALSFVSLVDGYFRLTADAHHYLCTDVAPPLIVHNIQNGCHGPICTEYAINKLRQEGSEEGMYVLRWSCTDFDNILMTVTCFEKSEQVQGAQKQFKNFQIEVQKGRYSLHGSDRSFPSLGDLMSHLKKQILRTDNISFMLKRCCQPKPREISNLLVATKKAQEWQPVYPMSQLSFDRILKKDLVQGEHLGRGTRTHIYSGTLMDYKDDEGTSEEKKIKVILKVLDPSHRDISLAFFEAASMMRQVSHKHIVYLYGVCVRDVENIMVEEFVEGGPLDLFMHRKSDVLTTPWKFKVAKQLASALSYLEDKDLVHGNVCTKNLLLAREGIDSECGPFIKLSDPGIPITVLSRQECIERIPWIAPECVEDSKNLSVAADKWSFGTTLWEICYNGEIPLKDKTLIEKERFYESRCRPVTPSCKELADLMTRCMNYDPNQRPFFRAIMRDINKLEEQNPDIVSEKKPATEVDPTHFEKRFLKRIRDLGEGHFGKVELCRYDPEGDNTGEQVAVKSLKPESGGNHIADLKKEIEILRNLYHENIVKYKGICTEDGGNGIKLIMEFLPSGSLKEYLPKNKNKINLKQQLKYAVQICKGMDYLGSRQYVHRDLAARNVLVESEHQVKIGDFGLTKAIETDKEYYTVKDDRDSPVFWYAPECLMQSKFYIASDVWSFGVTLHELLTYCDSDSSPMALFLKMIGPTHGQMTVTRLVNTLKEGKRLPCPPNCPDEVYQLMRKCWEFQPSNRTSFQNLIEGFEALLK

Usually IC50 stands for the concentration at which inhibition is half-maximal. A higher IC50 goes with a need for much substance. For the compound `CCCC(=O)N1CCC(n2cc(-c3ccnc(Nc4cnn(C)c4)n3)cn2)CC1` [TDM-180677, 1-(4-(4-(2-((1-methyl-1H-pyrazol-4-yl)amino)pyrimidin-4-yl)-1H-pyrazol-1-yl)piperidin-1-yl)butan-1-one], the IC50 at JAK2, against Tyk2, against JAK1 and against JAK3 was at least 10 µM throughout.
Consider `Cn1cc(Nc2nccc(-c3cnn(C4CCN(C(=O)CC(F)(F)F)CC4)c3)n2)cn1` [TDM-180678, 3,3,3-trifluoro-1-(4-(4-(2-((1-methyl-1H-pyrazol-4-yl)amino)pyrimidin-4-yl)-1H-pyrazol-1-yl)piperidin-1-yl)propan-1-one], for which the half-maximal inhibitory concentration (IC50) against JAK2, at Tyk2, at JAK1 and at JAK3 was at least 10 µM each time.
On to `Cn1cc(Nc2nccc(-c3cnn(C4CCN(C(=O)C5CC5(F)F)CC4)c3)n2)cn1` (centres unmarked) [TDM-180679, (2,2-difluorocyclopropyl)(4-(4-(2-((1-methyl-1H-pyrazol-4-yl)amino)pyrimidin-4-yl)-1H-pyrazol-1-yl)piperidin-1-yl)ketone], for which the IC50 against JAK2, on Tyk2, against JAK1 and against JAK3 was at least 10 µM in each case.
In the case of `Cn1cc(Nc2nccc(-c3cnn(C4CCN(C(=O)CC#N)CC4)c3)n2)cn1` [TDM-180680, 3-(4-(4-(2-((1-methyl-1H-pyrazol-4-yl)amino)pyrimidin-4-yl)-1H-pyrazol-1-yl)piperidin-1-yl)3-oxopropanenitrile], the half-maximal inhibitory concentration (IC50) at JAK2, against Tyk2, against JAK1 and on JAK3 was at least 10 µM throughout.
As to `Cn1cc(Nc2nccc(-c3cnn(C4CCN(C(=O)CO)CC4)c3)n2)cn1` [TDM-180681, 2-hydroxy-1-(4-(4-(2-((1-methyl-1H-pyrazol-4-yl)amino)pyrimidin-4-yl)-1H-pyrazol-1-yl)piperidin-1-yl)ethanone], the half-inhibitory concentration (IC50) at JAK2, against Tyk2, on JAK1 and on JAK3 was at least 10 µM each time.
In the case of `Cn1cc(Nc2nccc(-c3cnn(C4(CC#N)CN(C(=O)C5CC5(F)F)C4)c3)n2)cn1` (centres unmarked) [TDM-180726, 2-(1-(2,2-difluorocyclo-1-carbonyl)-3-(4-(2-((1-methyl-1H-pyrazol-4-yl)amino)pyrimidin-4-yl)-1H-pyrazol-1-yl)azetidin-3-yl)acetonitrile], the IC50 against JAK2 was 0.1 to 1 µM; at Tyk2, 0.1 to 1 µM; against JAK1 it was 0.1 to 1 µM; at JAK3 it was 1 to 10 µM.
For the compound `Cn1cc(Nc2nccc(-c3cnn(C4(CC#N)CN(C(=O)CC#N)C4)c3)n2)cn1` [TDM-180727, 3-(3-(cyanomethyl)-3-(4-(2-((1-methyl-1H-pyrazol-4-yl)amino)pyrimidin-4-yl)-1H-pyrazol-1-yl)azetidinpiperazin-1-yl)-3-oxypropionitrile], the IC50 was 1 to 10 µM against JAK2, 0.1 to 1 µM on Tyk2, 0.1 to 1 µM against JAK1 and at least 10 µM at JAK3.
In the case of `CCS(=O)(=O)N1CC(CC#N)(n2cc(-c3ccnc(Nc4cnn(C)c4)n3)cn2)C1` [TDM-180728, 2-(1-(ethylsulfonyl)-3-(4-(2-((1-methyl-1H-pyrazol-4-yl)amino)pyrimidin-4-yl)-1H-pyrazol-1-yl)azetidinpyridin-3-yl)acetonitrile], the half-inhibitory concentration (IC50) against JAK2 was below 0.1 µM; against Tyk2 it was 0.1 to 1 µM; on JAK1, 0.1 to 1 µM; against JAK3, 1 to 10 µM.
On to `Cn1cc(Nc2nccc(-c3cnn(C4(CC#N)CN(C(=O)CC(F)(F)F)C4)c3)n2)cn1` [TDM-180752, 2-(3-(4-(2-((1-methyl-1H-pyrazol-4-yl)amino)pyrimidin-4-yl)-1H-pyrazol-1-yl)-1-(3,3,3-trifluoropropionyl)azetidin-3-yl)acetonitrile], for which the half-inhibitory concentration (IC50) against JAK2 was 0.1 to 1 µM; against Tyk2, 0.1 to 1 µM; against JAK1 it was 0.1 to 1 µM; against JAK3 it was 1 to 10 µM.
In the case of `Cn1cc(Nc2nccc(-c3cnn(C4(CC#N)CN(C(=O)C5CC5)C4)c3)n2)cn1` [TDM-180753, 2-(1-(cyclopropanecarbonyl)-3-(4-(2-((1-methyl-1H-pyrazol-4-yl)amino)pyrimidin-4-yl)-1H-pyrazol-1-yl)azetidinpyridin-3-yl)acetonitrile], the IC50 is 1 to 10 µM on JAK2, 0.1 to 1 µM against Tyk2, 0.1 to 1 µM against JAK1 and at least 10 µM on JAK3.
For `Cn1cc(Nc2nccc(-c3cnn(C4(CC#N)CN(S(=O)(=O)C5CC5)C4)c3)n2)cn1` [TDM-180766, 2-(1-(cyclopropylsulfonyl)-3-(4-(2-((1-methyl-1H-pyrazol-4-yl)amino)pyrimidin-4-yl)-1H-pyrazol-1-yl)azetidinpyridin-3-yl)acetonitrile], the half-maximal inhibitory concentration (IC50) is below 0.1 µM against JAK2, below 0.1 µM at Tyk2, 0.1 to 1 µM on JAK1 and 1 to 10 µM against JAK3.
On to `Cn1cc(Nc2nccc(-c3ccn(C4(CC#N)CN(S(=O)(=O)C5CC5)C4)c3)n2)cn1` [TDM-180770, 2-(1-(cyclopropylsulfonyl)-3-(3-(2-((1-methyl-1H-pyrazol-4-yl)amino)pyrimidin-4-yl)-1H-pyrrol-1-yl)azetidinpyridin-3-yl)acetonitrile], for which the IC50 against JAK2 was 0.1 to 1 µM; against Tyk2, below 0.1 µM; against JAK1, 0.1 to 1 µM; against JAK3, 1 to 10 µM.
In the case of `CCS(=O)(=O)N1CC(CC#N)(n2ccc(-c3ccnc(Nc4cnn(C)c4)n3)c2)C1` [TDM-180771, 2-(1-(ethylsulfonyl)-3-(3-(2-((1-methyl-1H-pyrazol-4-yl)amino)pyrimidin-4-yl)-1H-pyrrol-1-yl)azetidinpyridin-3-yl)acetonitrile], the IC50 was below 0.1 µM against JAK2, below 0.1 µM against Tyk2, 0.1 to 1 µM against JAK1 and 1 to 10 µM at JAK3.
In the case of `Cn1cc(Nc2nccc(-c3ccn(C4(CC#N)CN(C(=O)C5CC5)C4)c3)n2)cn1` [TDM-180772, 2-(1-(cyclopropanecarbonyl)-3-(3-(2-((1-methyl-1H-pyrazol-4-yl)amino)pyrimidin-4-yl)-1H-pyrrol-1-yl)azetidinpyridin-3-yl)acetonitrile], the IC50 against JAK2 was 0.1 to 1 µM; on Tyk2 it was 0.1 to 1 µM; against JAK1 it was 0.1 to 1 µM; on JAK3, at least 10 µM.
Regarding `Cn1cc(Nc2nccc(-c3ccn(C4(CC#N)CN(C(=O)CC#N)C4)c3)n2)cn1` [TDM-180775, 3-(3-(cyanomethyl)-3-(3-(2-((1-methyl-1H-pyrazol-4-yl)amino)pyrimidin-4-yl)-1H-pyrrol-1-yl)azetidinpiperazin-1-yl)-3-oxypropionitrile], the IC50 at JAK2 was 0.1 to 1 µM; against Tyk2, 0.1 to 1 µM; against JAK1, 0.1 to 1 µM; on JAK3, at least 10 µM.
Consider `Cn1cc(Nc2nccc(-c3ccn(C4(CC#N)CN(C(=O)C5CC5(F)F)C4)c3)n2)cn1` (centres unmarked) [TDM-180776, 2-(1-(2,2-difluorocyclo-1-carbonyl)-3-(3-(2-((1-methyl-1H-pyrazol-4-yl)amino)pyrimidin-4-yl)-1H-pyrrol-1-yl)azetidin-3-yl)acetonitrile], for which the IC50 on JAK2 is below 0.1 µM; against Tyk2, below 0.1 µM; against JAK1, below 0.1 µM; against JAK3 it was 1 to 10 µM.
For the compound `Cn1cc(Nc2nccc(-c3ccn(C4(CC#N)CN(C(=O)CC(F)(F)F)C4)c3)n2)cn1` [TDM-180778], the IC50 is 0.1 to 1 µM against JAK2, below 0.1 µM at Tyk2, below 0.1 µM at JAK1 and 1 to 10 µM at JAK3.
